As a reminder, the Ki is the equilibrium dissociation constant of an inhibitor or competing ligand from its target. Read a high Ki as lower affinity.

In assay [1] the target is Glutamate NMDA receptor. The assay can be described thus: Displacement of [3H]CGP 39653 from NMDA receptor in Sprague-Dawley rat brain synaptic membrane after 60 mins by scintillation counting. In general terms: In a radioligand displacement assay an active substance lowers the binding of a labelled ligand.
The nature of assay [2]: Displacement of [3H]KAIN from kainate receptor in Sprague-Dawley rat brain synaptic membrane after 60 mins by scintillation counting.
A short description of assay [3]: Displacement of [3H]AMPA from AMPA receptor in Sprague-Dawley rat brain synaptic membrane after 30 mins by scintillation counting.
In assay [4] the target is Glutamate NMDA receptor. The experiment in a line: Displacement of [3H]CPP from NMDA receptor in Sprague-Dawley rat brain synaptic membrane after 60 mins by scintillation counting.

SMILES strings stand for the structures.

With `C[C@@H]1ON=C(C(=O)O)[C@@H]1C[C@H](N)C(=O)O` (racemic), the Ki in assay [1] was 18 µM; in assay [2], more than 100 µM; in assay [3], more than 100 µM.

As for `N[C@@H](C[C@H]1CC(C(=O)O)=NO1)C(=O)O` (racemic), the figures for the inhibition constant Ki in assay [1], in assay [2] and in assay [3] were 0.96 µM, more than 100 µM and more than 100 µM, respectively.

`C[C@@H]1ON=C(C(=O)O)[C@@H]1C[C@@H](N)C(=O)O` (racemic): the Ki in assay [1] was 60 µM; in assay [2], more than 100 µM; in assay [3], more than 100 µM.

In the case of `C[C@H]1C(C(=O)O)=NO[C@H]1C[C@H](N)C(=O)O` (racemic), the Ki was found to be 5.1 µM in assay [1], 56 µM in assay [2] and 31 µM in assay [3].

Take `N[C@@]1(C(=O)O)C[C@@H]2ON=C(C(=O)O)[C@@H]2C1` (racemic): the Ki in assay [2] and in assay [3] was more than 100 µM throughout.

Consider `Cc1onc(C(=O)O)c1CC(N)C(=O)O` (racemic), for which the values for the Ki in assay [2], in assay [3] and in assay [4] were 6.3 µM, 0.02 µM and more than 100 µM, respectively.

For `C[C@H]1C(C(=O)O)=NO[C@H]1C[C@@H](N)C(=O)O` (racemic), the Ki in assay [1] is 3 µM; in assay [2], more than 100 µM; in assay [3] it was 4.1 µM.

Regarding `N[C@H](C[C@H]1CC(C(=O)O)=NO1)C(=O)O` (racemic), the Ki in assay [1] was 0.21 µM; in assay [2] it was more than 100 µM; in assay [3], more than 100 µM.

For the origin of these results see ChEMBL document CHEMBL1667798, “Synthesis of new isoxazoline-based acidic amino acids and investigation of their affinity and selectivity profile at ionotropic glutamate receptors” (Eur J Med Chem, 2011).
